Biological target: Mu-type opioid receptor (Homo sapiens) (UniProt P35372)
Assay: […] [35S]- GTPgammaS on Opioid receptor mu 1 in monkey brain membranes
Format: cell membranes
Details: Cercopithecidae, Membrane, target entry is the homologue from another species

Mu-type opioid receptor (Homo sapiens), sequence (P35372 whole entry): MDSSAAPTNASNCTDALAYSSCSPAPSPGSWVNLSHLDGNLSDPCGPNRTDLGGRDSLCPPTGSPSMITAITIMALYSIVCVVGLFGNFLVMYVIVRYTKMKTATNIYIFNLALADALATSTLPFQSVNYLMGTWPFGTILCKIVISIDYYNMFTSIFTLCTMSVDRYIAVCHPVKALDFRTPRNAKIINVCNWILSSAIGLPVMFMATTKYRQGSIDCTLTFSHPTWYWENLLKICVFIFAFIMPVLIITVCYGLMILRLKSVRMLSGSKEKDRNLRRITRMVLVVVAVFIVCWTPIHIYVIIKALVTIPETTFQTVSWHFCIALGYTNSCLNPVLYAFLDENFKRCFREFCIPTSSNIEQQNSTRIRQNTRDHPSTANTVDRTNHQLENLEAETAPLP

SMILES	Ke [nM]
O=C(/C=C/c1ccc(Cl)cc1)N[C@@]12CCC(=O)[C@@H]3Oc4c(O)ccc5c4[C@@]31CCN(CC1CC1)[C@@H]2C5	0.37
O=C(/C=C/c1ccc(Cl)cc1)NC12CCC(=O)C3Oc4cccc5c4[C@@]31CCN(CC1CC1)[C@@H]2C5 (stereo partly drawn)	0.28
COc1ccc2c3c1O[C@H]1C(=O)CC[C@@]4(NC(=O)/C=C/c5ccc(Cl)cc5)[C@@H](C2)N(CC2CC2)CC[C@]314	6.37

— ChEMBL document CHEMBL1133634, “3-Deoxyclocinnamox: the first high-affinity, nonpeptide mu-opioid antagonist lacking a phenolic hydroxyl group” (J Med Chem, 2000)
